In ChEMBL document CHEMBL1201862, “PubChem BioAssay data set” (2004):
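Briefly, cells in 96-well plates were exposed to five compound concentrations for 48 h, and endpoints were estimated by linear interpolation. GI50: concentration for 50% inhibition of growth.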 Calls of active or inactive are those of the source. No stated cut-off is given here; in the data, active = GI50 up to about 1.1 µM and inactive = higher.

Legend:
Assay in all cases: NCI-60 cell line screen, 48 h
786-0 = system: 786-0
A498 = system: A498
A549 = system: A549
ACHN = system: ACHN
CAKI-1 = system: CAKI-1
CCRF-CEM = system: CCRF-CEM
COLO 205 = system: COLO 205
DLD-1 = system: DLD-1
DMS-114 = system: DMS-114
DMS-273 = system: DMS-273
EKVX = system: EKVX
HCC 2998 = system: HCC 2998
HCT-116 = system: HCT-116
HCT-15 = system: HCT-15
HL-60 = system: HL-60
HOP-18 = system: HOP-18
HOP-62 = system: HOP-62
HOP-92 = system: HOP-92
HT-29 = system: HT-29
IGROV-1 = system: IGROV-1
K562 = system: K562
KM-20L2 = system: KM-20L2
KM12 = system: KM12
LOX IMVI = system: LOX IMVI
LXFL 529 = system: LXFL 529
M14 = system: M14
M19-MEL = system: M19-MEL
Malme-3M = system: Malme-3M
NCI-H226 = system: NCI-H226
NCI-H23 = system: NCI-H23
NCI-H460 = system: NCI-H460
NCI-H522 = system: NCI-H522
OVCAR-3 = system: OVCAR-3
OVCAR-4 = system: OVCAR-4
OVCAR-5 = system: OVCAR-5
OVCAR-8 = system: OVCAR-8
RXF 393 = system: RXF 393
SF-268 = system: SF-268
SF-295 = system: SF-295
SF-539 = system: SF-539
SK-MEL-28 = system: SK-MEL-28
SK-MEL-2 = system: SK-MEL-2
SK-MEL-5 = system: SK-MEL-5
SK-OV-3 = system: SK-OV-3
SN12C = system: SN12C
SNB-19 = system: SNB-19
SNB-75 = system: SNB-75
SNB-78 = system: SNB-78
SR = system: SR
SW-620 = system: SW-620
TK-10 = system: TK-10
U-251 = system: U-251
UACC-257 = system: UACC-257
UACC-62 = system: UACC-62
UO-31 = system: UO-31
MOLT-4 = system: MOLT-4
RPMI-8226 = system: RPMI-8226
XF498 = system: XF498

O=C1CCCCCCCCCCOC(=O)CCCCCCCCCCO1
GI50 (786-0): > 100 µM (inactive)
GI50 (A498): > 100 µM (inactive)
GI50 (A549): > 100 µM (inactive)
GI50 (ACHN): > 100 µM (inactive)
GI50 (CAKI-1): > 100 µM (inactive)
GI50 (CCRF-CEM): > 100 µM (inactive)
GI50 (COLO 205): > 100 µM (inactive)
GI50 (DLD-1): > 100 µM (inactive)
GI50 (DMS-114): > 100 µM (inactive)
GI50 (DMS-273): > 100 µM (inactive)
GI50 (EKVX): > 100 µM (inactive)
GI50 (HCC 2998): > 100 µM (inactive)
GI50 (HCT-116): > 100 µM (inactive)
GI50 (HCT-15): > 100 µM
GI50 (HL-60): 21.8 µM (inactive)
GI50 (HOP-18): > 100 µM (inactive)
GI50 (HOP-62): > 100 µM (inactive)
GI50 (HOP-92): > 100 µM (inactive)
GI50 (HT-29): > 100 µM (inactive)
GI50 (IGROV-1): > 100 µM (inactive)
GI50 (K562): > 100 µM (inactive)
GI50 (KM-20L2): > 10 µM (inactive)
GI50 (KM12): > 100 µM (inactive)
GI50 (LOX IMVI): > 100 µM (inactive)
GI50 (LXFL 529): > 100 µM (inactive)
GI50 (M14): > 100 µM (inactive)
GI50 (M19-MEL): > 100 µM (inactive)
GI50 (Malme-3M): > 100 µM (inactive)
GI50 (NCI-H226): > 100 µM (inactive)
GI50 (NCI-H23): > 100 µM (inactive)
GI50 (NCI-H460): > 100 µM (inactive)
GI50 (NCI-H522): > 100 µM (inactive)
GI50 (OVCAR-3): > 100 µM (inactive)
GI50 (OVCAR-4): > 100 µM (inactive)
GI50 (OVCAR-5): > 100 µM (inactive)
GI50 (OVCAR-8): > 100 µM (inactive)
GI50 (RXF 393): > 100 µM (inactive)
GI50 (SF-268): > 100 µM (inactive)
GI50 (SF-295): > 100 µM (inactive)
GI50 (SF-539): > 100 µM (inactive)
GI50 (SK-MEL-28): > 100 µM (inactive)
GI50 (SK-MEL-2): > 100 µM (inactive)
GI50 (SK-MEL-5): > 100 µM (inactive)
GI50 (SK-OV-3): > 100 µM (inactive)
GI50 (SN12C): > 100 µM (inactive)
GI50 (SNB-19): > 100 µM (inactive)
GI50 (SNB-75): > 100 µM (inactive)
GI50 (SNB-78): > 100 µM (inactive)
GI50 (SR): 44.7 µM (inactive)
GI50 (SW-620): > 100 µM (inactive)
GI50 (TK-10): > 100 µM (inactive)
GI50 (U-251): > 100 µM (inactive)
GI50 (UACC-257): > 100 µM (inactive)
GI50 (UACC-62): > 100 µM (inactive)
GI50 (UO-31): > 100 µM (inactive)

Cc1cc(NS(=O)(=O)c2ccc(NC(=O)c3ccc(Cl)c4c(Nc5ccc(S(=O)(=O)N=C(N)N)cc5)c5ccccc5nc34)cc2)no1
GI50 (786-0): 45.6 µM (inactive)
GI50 (A498): > 100 µM (inactive)
GI50 (ACHN): > 100 µM (inactive)
GI50 (CCRF-CEM): 28.3 µM (inactive)
GI50 (DLD-1): > 100 µM (inactive)
GI50 (DMS-114): 62.4 µM (inactive)
GI50 (EKVX): 95.1 µM (inactive)
GI50 (HCC 2998): 22.3 µM (inactive)
GI50 (HCT-116): 36 µM (inactive)
GI50 (HCT-15): > 100 µM
GI50 (HOP-62): 21.6 µM (inactive)
GI50 (HT-29): 45.8 µM (inactive)
GI50 (K562): 39 µM (inactive)
GI50 (KM-20L2): > 100 µM (inactive)
GI50 (KM12): 40.6 µM (inactive)
GI50 (LOX IMVI): 28.1 µM (inactive)
GI50 (LXFL 529): 31.8 µM (inactive)
GI50 (M14): > 100 µM (inactive)
GI50 (M19-MEL): 46.8 µM (inactive)
GI50 (MOLT-4): 15.2 µM (inactive)
GI50 (Malme-3M): > 100 µM (inactive)
GI50 (NCI-H23): > 100 µM (inactive)
GI50 (NCI-H460): > 100 µM (inactive)
GI50 (NCI-H522): 20 µM (inactive)
GI50 (OVCAR-3): 27 µM (inactive)
GI50 (OVCAR-4): 68.5 µM (inactive)
GI50 (OVCAR-5): > 100 µM (inactive)
GI50 (OVCAR-8): 38.2 µM (inactive)
GI50 (RPMI-8226): 59.7 µM (inactive)
GI50 (RXF 393): 19.2 µM (inactive)
GI50 (SF-268): 42.3 µM (inactive)
GI50 (SF-295): > 100 µM (inactive)
GI50 (SF-539): 30.5 µM (inactive)
GI50 (SK-MEL-28): 87.5 µM (inactive)
GI50 (SK-OV-3): > 100 µM (inactive)
GI50 (SN12C): 32.3 µM (inactive)
GI50 (SNB-19): 39.7 µM (inactive)
GI50 (SNB-75): 29.7 µM (inactive)
GI50 (SNB-78): 41.9 µM (inactive)
GI50 (SR): 27.6 µM (inactive)
GI50 (TK-10): > 100 µM (inactive)
GI50 (U-251): 18 µM (inactive)
GI50 (UACC-257): > 100 µM (inactive)
GI50 (UACC-62): 44.3 µM (inactive)
GI50 (UO-31): > 100 µM (inactive)
GI50 (XF498): 17.6 µM (inactive)

CCCCNC1=C(C(=O)OCC)C(=O)CO1
GI50 (786-0): > 100 µM (inactive)
GI50 (A549): > 100 µM (inactive)
GI50 (ACHN): > 100 µM (inactive)
GI50 (CAKI-1): > 100 µM (inactive)
GI50 (CCRF-CEM): > 100 µM (inactive)
GI50 (COLO 205): > 100 µM (inactive)
GI50 (DLD-1): > 100 µM (inactive)
GI50 (DMS-114): > 100 µM (inactive)
GI50 (DMS-273): > 100 µM (inactive)
GI50 (EKVX): > 100 µM (inactive)
GI50 (HCC 2998): > 100 µM (inactive)
GI50 (HCT-15): > 100 µM
GI50 (HL-60): > 100 µM (inactive)
GI50 (HOP-18): > 100 µM (inactive)
GI50 (HOP-62): > 100 µM (inactive)
GI50 (HT-29): > 100 µM (inactive)
GI50 (IGROV-1): > 100 µM (inactive)
GI50 (K562): > 100 µM (inactive)
GI50 (KM-20L2): > 100 µM (inactive)
GI50 (KM12): > 100 µM (inactive)
GI50 (LOX IMVI): > 100 µM (inactive)
GI50 (LXFL 529): > 100 µM (inactive)
GI50 (M14): > 100 µM (inactive)
GI50 (M19-MEL): > 100 µM (inactive)
GI50 (MOLT-4): > 100 µM (inactive)
GI50 (Malme-3M): > 100 µM (inactive)
GI50 (NCI-H226): > 100 µM (inactive)
GI50 (NCI-H23): > 100 µM (inactive)
GI50 (NCI-H460): > 100 µM (inactive)
GI50 (NCI-H522): > 100 µM (inactive)
GI50 (OVCAR-3): > 100 µM (inactive)
GI50 (OVCAR-4): > 100 µM (inactive)
GI50 (OVCAR-5): > 100 µM (inactive)
GI50 (OVCAR-8): > 100 µM (inactive)
GI50 (RPMI-8226): > 100 µM (inactive)
GI50 (RXF 393): > 100 µM (inactive)
GI50 (SF-268): > 100 µM (inactive)
GI50 (SF-295): > 100 µM (inactive)
GI50 (SF-539): > 100 µM (inactive)
GI50 (SK-MEL-28): > 100 µM (inactive)
GI50 (SK-MEL-2): > 100 µM (inactive)
GI50 (SK-MEL-5): > 100 µM (inactive)
GI50 (SK-OV-3): > 100 µM (inactive)
GI50 (SN12C): > 100 µM (inactive)
GI50 (SNB-19): > 100 µM (inactive)
GI50 (SNB-75): 80.2 µM (inactive)
GI50 (SW-620): > 100 µM (inactive)
GI50 (TK-10): > 100 µM (inactive)
GI50 (U-251): > 100 µM (inactive)
GI50 (UACC-257): > 100 µM (inactive)
GI50 (UACC-62): > 100 µM (inactive)
GI50 (UO-31): > 100 µM (inactive)
GI50 (XF498): > 100 µM (inactive)
